Results taken from US20120015907A1, “Furopyridine compounds and uses thereof” (NOVARTIS AG, priority 2010, published 2012).

Key:
HCV polymerase = molecular target: T1, HCV polymerase (Hepatitis C virus genotype 1b, UniProt Q9WMX2); assay: biochemical; details: polymerase assay of Biological Example 1; read-out: NS5B polymerase IC50
T1 construct: (His)6 (C)

[1] = test system: HCV replicon I389luc-ubi-neo/NS3-3'/ET in ET (Huh-lucubineo-ET) cells; assay: Replicon assay (Biological Example 2), luciferase read-out; type: cell-based; details: Hepatitis C virus, luciferase activity 48 hours after compound addition
Description: A cell line, ET (Huh-lucubineo-ET) is used for screening of compounds for inhibiting HCV RNA dependent RNA polymerase. The ET cell line is stably transfected with RNA transcripts harboring a I389luc-ubi-neo/NS3-3′/ET; replicon with firefly luciferase-ubiquitin-neomycin phosphotransferase fusion protein and EMCV-IRES driven NS3-5B polyprotein containing the cell culture adaptive mutations (E1202G; […]; K1846T) (Krieger at al, 2001 and unpublished). The ET cells are grown in DMEM (Dulbeco's Modified Eagle's Medium), supplemented with 10% fetal calf serum, 2 mM Glutamine, Penicillin (100 IU/mL)/Streptomycin (100 μg/mL), 1× nonessential amino acids, and 250 μg/mL G418 (“Geneticin”). Reagents are all available through Life Technologies (Bethesda, Md.). The cells are plated at 0.5-1.0×10^4 cells/well in the 96 well plates and incubated for 24 hrs before adding test compound. The compounds are added to the cells to achieve a final concentration of 0.1 nM to 50 μM and a final DMSO (dimethylsulfoxide) concentration of 0.5%. Luciferase activity is measured 48 hours later by adding a lysis buffer and the substrate (Catalog number Glo-lysis buffer E2661 and Bright-Glo luciferase system E2620 Promega, Madison, Wis.). Cells should not be too confluent during the assay. Percent inhibition of replication data is plotted relative to no compound control. To determine the EC50 (effective concentration at which 50% of the maximum inhibition is observed), a 10 point, 3-fold serial dilution for each compound is used, which spans a concentration range of 1000 fold. EC50 values were calculated by fitting % inhibition at each concentration to the following equation:
% inhibition=100%/[(EC50/[I])^b+1]
where b is Hill's coefficient.

Molecule `CNC(=O)c1c(-c2ccc(C)cc2)oc2nc(N(CCCCS(C)(=O)=O)S(C)(=O)=O)c(I)cc12` [Example 18.996, 5-iodo-N-methyl-6-(N-(4-(methylsulfonyl)butyl)methylsulfonamido)-2-p-tolylfuro[2,3-b]pyridine-3-carboxamide] has an IC50 (HCV polymerase) of 4 nM and an IC50 [1] of at most 100 nM.
`CNC(=O)c1c(-c2ccc(F)cc2)oc2nc(N(CCCC(C)O)S(C)(=O)=O)c(C3CC3)cc12` (stereo not drawn) [Example 26.4, 5-cyclopropyl-2-(4-fluorophenyl)-6-(N-(4-hydroxypentyl)methylsulfonamido)-N-methylfuro[2,3-b]pyridine-3-carboxamide] gave an IC50 (HCV polymerase) of 5 nM and an IC50 [1] of at most 100 nM.
For `CNC(=O)c1c(-c2ccc(F)cc2)oc2nc3c(cc12)CCCCCN3S(C)(=O)=O` [Example 36, 2-(4-Fluoro-phenyl)-10-methanesulfonyl-5,6,7,8,9,10-hexahydro-1-oxa-10,11-diaza-cycloocta[f]indene-3-carboxylic acid methylamide], the IC50 (HCV polymerase) was 50 nM and the IC50 [1] was at most 100 nM.
For `CNC(=O)c1c(-c2ccc(C)cc2)oc2nc(N(CCC3CCS(=O)(=O)C3)S(C)(=O)=O)c(C3CC3)cc12` (stereo not drawn) [Example 26.1, 5-Cyclopropyl-6-{[2-(1,1-dioxo-tetrahydro-thiophen-3-yl)-ethyl]-methanesulfonyl-amino}-2-p-tolyl-furo[2,3-b]pyridine-3-carboxylic acid methylamide], the IC50 (HCV polymerase) was 1 nM and the IC50 [1] was at most 100 nM.
In the case of `CNC(=O)c1c(-c2ccc(F)cc2)oc2nc(N(C)S(C)(=O)=O)c(CCCCC(=O)O)cc12` [Example 4, 5-(2-(4-fluorophenyl)-3-(methylcarbamoyl)-6-(N-methylmethylsulfonamido)furo[2,3-b]pyridin-5-yl)pentanoic acid], the IC50 (HCV polymerase) is reported as 49 nM and the IC50 [1] is reported as at least 5000 nM.
In the case of `CNC(=O)c1c(-c2ccc(C)cc2)oc2nc(N(CCC[C@@H]3CCCS3(=O)=O)S(C)(=O)=O)c(C3CC3)cc12` [Example 24.7, 5-Cyclopropyl-6-{[3-((R)-1,1-dioxo-tetrahydrothiophen-2-yl)-propyl]-methanesulfonyl-amino}-2-p-tolyl-furo[2,3-b]pyridine-3-carboxylic acid methylamide], the IC50 (HCV polymerase) is reported as 5 nM and the IC50 [1] is reported as at most 100 nM.
With `CCc1ccc(-c2oc3nc(N(C)S(C)(=O)=O)c(C4CC4)cc3c2C(=O)NC)cc1` [Example 2.94, 5-cyclopropyl-2-(4-ethylphenyl)-N-methyl-6-(N-methylmethylsulfonamido)furo[2,3-b]pyridine-3-carboxamide] the IC50 (HCV polymerase) was 3 nM and the IC50 [1] was at most 100 nM.
Molecule `CNC(=O)c1c(-c2ccc(F)cc2)oc2nc(N(CCCC(C)(C)C(=O)OCC(C)C)S(C)(=O)=O)c(C3CC3)cc12` [Example 26, isobutyl 5-(N-(5-cyclopropyl-2-(4-fluorophenyl)-3-(methylcarbamoyl)furo[2,3-b]pyridin-6-yl)methylsulfonamido)-2,2-dimethylpentanoate] has an IC50 (HCV polymerase) of 6 nM and an IC50 [1] of at most 100 nM.
For `CNC(=O)c1c(-c2ccc(Oc3ccc(F)cc3)cc2)oc2nc(N(CCCCC(=O)O)S(C)(=O)=O)c(C3CC3)cc12` [Example 27.2, 5-(N-(5-cyclopropyl-2-(4-(4-fluorophenoxy)phenyl)-3-(methylcarbamoyl)furo[2,3-b]pyridin-6-yl)methylsulfonamido) pentanoic acid], the IC50 (HCV polymerase) was 1 nM and the IC50 [1] was at most 100 nM.
`CNC(=O)c1c(-c2ccc(C)cc2)oc2nc(N(CCCCC(=O)OC)S(C)(=O)=O)c(C3CC3)cc12` [Example 25.2, methyl 5-(N-(5-cyclopropyl-3-(methylcarbamoyl)-2-p-tolylfuro[2,3-b]pyridin-6-yl)methylsulfonamido) pentanoate] showed an IC50 (HCV polymerase) of 3 nM and an IC50 [1] of at most 100 nM.
Molecule `CNC(=O)c1c(-c2ccc(C3CC3)cc2)oc2nc(N(CCCCC(=O)O)S(C)(=O)=O)c(C3CC3)cc12` [Example 27.7, 5-(N-(5-cyclopropyl-2-(4-cyclopropylphenyl)-3-(methylcarbamoyl)furo[2,3-b]pyridin-6-yl)methylsulfonamido) pentanoic acid] has an IC50 (HCV polymerase) of 1 nM and an IC50 [1] of at most 100 nM.
Work on `CNC(=O)c1c(-c2ccc(Oc3ccccc3)cc2)oc2nc(N(CCCCC(=O)O)S(C)(=O)=O)c(C3CC3)cc12` [Example 27, 5-(N-(5-cyclopropyl-3-(methylcarbamoyl)-2-(4-phenoxyphenyl)furo[2,3-b]pyridin-6-yl)methylsulfonamido) pentanoic acid] yielded an IC50 (HCV polymerase) of 1 nM and an IC50 [1] of at most 100 nM.
`CNC(=O)c1c(-c2ccc(C)cc2)oc2nc(N(CC[C@@H]3C[C@H]3C(=O)O)S(C)(=O)=O)c(C3CC3)cc12` [Example 28.1, (1R,2S)-2-(2-(N-(5-cyclopropyl-3-(methylcarbamoyl)-2-p-tolylfuro[2,3-b]pyridin-6-yl)methylsulfonamido)ethyl) cyclopropanecarboxylic acid] was tested, and the IC50 (HCV polymerase) was 2 nM and the IC50 [1] was at most 100 nM.
For `CNC(=O)c1c(-c2ccc(F)cc2)oc2nc(N(C)S(C)(=O)=O)c(CCCCC(C)(O)C(C)(C)O)cc12` (stereo not drawn) [Example 4.9, 5-(5,6-dihydroxy-5,6-dimethylheptyl)-2-(4-fluorophenyl)-N-methyl-6-(N-methylmethylsulfonamido)furo[2,3-b]pyridine-3-carboxamide], the IC50 (HCV polymerase) was 75 nM and the IC50 [1] was at most 100 nM.
For `CNC(=O)c1c(-c2ccc(Oc3ccccc3)cc2)oc2nc(N(CCCC(C)(C)C(=O)O)S(C)(=O)=O)c(C3CC3)cc12` [Example 27.4, 5-(N-(5-cyclopropyl-3-(methylcarbamoyl)-2-(4-phenoxyphenyl)furo[2,3-b]pyridin-6-yl)methylsulfonamido)-2,2-dimethylpentanoic acid], the IC50 (HCV polymerase) was 1 nM and the IC50 [1] was at most 100 nM.
With `CCc1cc2c(C(=O)NC)c(-c3ccc(F)cc3)oc2nc1N(CCCC1C(=O)CCS1(=O)=O)S(C)(=O)=O` (stereo not drawn) [Example 23.99, 5-Ethyl-2-(4-fluoro-phenyl)-6-{methanesulfonyl-[3-(1,1,3-trioxo-tetrahydrothiophen-2-yl)-propyl]-amino}-furo[2,3-b]pyridine-3-carboxylic acid methylamide] the IC50 (HCV polymerase) was 26 nM and the IC50 [1] was at most 100 nM.
In the case of `CNC(=O)c1c(-c2ccc(F)cc2)oc2nc(N(C)S(C)(=O)=O)c(C3CC3)cc12` [Example 1, 5-Cyclopropyl-2-(4-fluoro-phenyl)-6-(methanesulfonyl-methyl-amino)-furo[2,3-b]pyridine-3-carboxylic acid methylamide], the IC50 (HCV polymerase) is reported as 16 nM and the IC50 [1] is reported as at most 100 nM.
With `CNC(=O)c1c(-c2ccc(Cl)cc2)oc2nc(N(CCCCS(C)(=O)=O)S(C)(=O)=O)c(I)cc12` [Example 18.995, 2-(4-chlorophenyl)-5-iodo-N-methyl-6-(N-(4-(methylsulfonyl)butyl)methylsulfonamido)furo[2,3-b]pyridine-3-carboxamide] the IC50 (HCV polymerase) was 14 nM and the IC50 [1] was at most 100 nM.
Molecule `CCc1cc2c(C(=O)NC)c(-c3ccc(F)cc3)oc2nc1N(CCCCS(=O)(=O)C(C)C)S(C)(=O)=O` [Example 23.92, 5-ethyl-2-(4-fluorophenyl)-6-(N-(4-(isopropylsulfonyl)butyl)methylsulfonamido)-N-methylfuro[2,3-b]pyridine-3-carboxamide] has an IC50 (HCV polymerase) of 11 nM and an IC50 [1] of at most 100 nM.
For `CNC(=O)c1c(-c2ccc(C)cc2)oc2nc(N(CCC(C)O)S(C)(=O)=O)c(C3CC3)cc12` (stereo not drawn) [Example 26.7, 5-cyclopropyl-6-(N-(3-hydroxybutyl)methylsulfonamido)-N-methyl-2-p-tolylfuro[2,3-b]pyridine-3-carboxamide], the IC50 (HCV polymerase) was 2 nM and the IC50 [1] was at most 100 nM.
In the case of `CCc1cc2c(C(=O)NC)c(-c3ccc(F)cc3)oc2nc1N(CCCS(=O)(=O)C(C)C)S(C)(=O)=O` [Example 23.91, 5-ethyl-2-(4-fluorophenyl)-6-(N-(3-(isopropylsulfonyl)propyl)methylsulfonamido)-N-methylfuro[2,3-b]pyridine-3-carboxamide], the IC50 (HCV polymerase) is reported as 18 nM and the IC50 [1] is reported as at most 100 nM.
`CNC(=O)c1c(-c2ccc(F)cc2)oc2nc(N(CCO)S(C)(=O)=O)c(C3CC3)cc12` [Example 2.2, 5-cyclopropyl-2-(4-fluorophenyl)-6-(N-(2-hydroxyethyl)methylsulfonamido)-N-methylfuro[2,3-b]pyridine-3-carboxamide] gave an IC50 (HCV polymerase) of 54 nM and an IC50 [1] of at most 100 nM.
Molecule `CNC(=O)c1c(-c2ccc(F)cc2)oc2nc(N(CCCCC(=O)OC)S(C)(=O)=O)c(C3CC3)cc12` [Example 26.8, methyl 5-(N-(5-cyclopropyl-2-(4-fluorophenyl)-3-(methylcarbamoyl)furo[2,3-b]pyridin-6-yl)methylsulfonamido) pentanoate] has an IC50 (HCV polymerase) of 5 nM and an IC50 [1] of at most 100 nM.
Molecule `CCc1cc2c(C(=O)NC)c(-c3ccc(F)cc3)oc2nc1N(CCCC1CCCS1(=O)=O)S(C)(=O)=O` (racemic) [Example 22.98, 6-{[3-(1,1-Dioxo-tetrahydro-1lambdathiophen-2-yl)-propyl]-methanesulfonyl-amino}-5-ethyl-2-(4-fluoro-phenyl)-furo[2,3-b]pyridine-3-carboxylic acid methylamide] has an IC50 (HCV polymerase) of 11 nM and an IC50 [1] of at most 100 nM.
